Broadly, the EC50 is the concentration needed to bring the measured effect to its halfway point.

A short description of data set [1]: Cytotoxicity against MDCK cells at 3 uM measured after 72 hrs by MTT assay. The format is toxicity, cell-based, Canis lupus familiaris. As to conditions: dog.
The nature of data set [2]: Inhibition of Influenza A virus A/udorn/72(H3N2) wild type M2 proton channel expressed in yeast assessed as growth restoration measured after 44 hrs by turbidometric assay. The arrangement: species or system Influenza A virus (A/udorn/1972(H3N2)).
A short description of data set [3]: Antiviral activity against Influenza A virus A/Puerto Rico/8/34 expressing wild type M2 proton channel infected in MDCK cells assessed as inhibition of viral replication at >= 0.8 uM measured after 10 hrs by miniplaque assay. The format is functional, Influenza A virus (A/Puerto Rico/8/1934(H1N1)).
The nature of data set [4]: Antiviral activity against Influenza A virus A/Puerto Rico/8/34 expressing wild type M2 proton channel infected in MDCK cells assessed as inhibition of viral replication measured after 10 hrs by miniplaque assay. The format is functional, cell-based, Influenza A virus (A/Puerto Rico/8/1934(H1N1)).
The subject of another data set is MDCK. Description: Antiviral activity against amantadine-sensitive Influenza A virus A/Hong Kong/1/68(H3N2) infected in MDCK cells assessed as protection from virus-induced cell death at 1 uM measured after 72 hrs by MTT assay. The data set is classed as functional, cell-based. As to conditions: Influenza A virus (A/Hong Kong/1/1968(H3N2)). On the technique in general: Formazan colour is commonly taken as a measure of viable cells.

Activity calls are given as the source filed them. No cut-off for these calls is given here.

As to `NC12CC3CC(CC(C3)C1)C2` [AMANTADINE], the Activity result in data set [1] is given as “Non-Toxic”. The figures for the EC50 in data set [2] and in data set [4] were 100 nM and 40 nM, respectively. Besides, the “inhibition (INH)” value in data set [3] is listed as more than 90%. Moreover, the result in the data set with MDCK was Active.

The record behind these values is ChEMBL document CHEMBL3856190, “Novel spirothiazamenthane inhibitors of the influenza A M2 proton channel” (Eur J Med Chem, 2016).
